The supplement of paper PMC4858399
Where a name gives a salt, the structure may show the parent alone.

Columns and labels:
Settings in all cases: exposure time 48 h
[1] = tested on: Caenorhabditis elegans N2; assay: lowest effective concentration for larval growth inhibition (size below effect threshold); higher = less potent
In short: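 L1 larvae of C. elegans N2 (50 per 96-well) were grown in K-medium with killed bacteria and 1% DMSO, with the chemical at 0.5, 1, 5, 10, 50, 100 or 200 µM, for 48 h at 20°C. Per-worm extinction from the Biosort stood for size and was log-transformed into well means. For each chemical, the lowest effective concentration is the first dose where plate-adjusted mean size falls under the threshold and stays under it at the higher doses, using a threshold of 5.665.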

[2] = tested on: Caenorhabditis elegans N2; assay: mean nematode size ln(EXT) after 48 h, plate-adjusted (DMSO control set to 6) (ln(EXT), control-adjusted); higher = larger nematodes / less growth inhibition
In short: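 A growth model removed debris from Biosort extinction readings taken on each worm. These worms were synchronised C. elegans N2 L1 larvae, 50 per well in 4–6 wells per treatment, grown for 48 h at 20°C in K-medium with killed OP50, 1% DMSO and 0.5–200 µM chemical. Readings were natural-logged and averaged by well to give mean size. On each plate, the vehicle control mean was subtracted and 6 was added.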

[3] = tested on: Caenorhabditis elegans N2; assay: AC50 for larval growth inhibition (Hill fit); higher = less potent
In short: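 AC50 values come from a constrained Hill fit by weighted genetic-algorithm regression and are censored when out of range. The fit used only wells with at least 10 worms. Each well of a 96-well plate held 50 synchronised C. elegans N2 L1 larvae in K-medium with killed OP50, 1% DMSO and 0.5–200 µM chemical for 48 h at 20°C. A COPAS Biosort recorded each worm's size as extinction, which was log-transformed and averaged per well.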

Compound | lowest effective concentration [1] | mean nematode size ln(EXT) (ln) ([2]; 0.5 µM) | mean nematode size ln(EXT) (ln) ([2]; 1 µM) | mean nematode size ln(EXT) (ln) ([2]; 5 µM) | mean nematode size ln(EXT) (ln) ([2]; 10 µM) | mean nematode size ln(EXT) (ln) ([2]; 50 µM) | mean nematode size ln(EXT) (ln) ([2]; 100 µM) | mean nematode size ln(EXT) (ln) ([2]; 200 µM) | AC50 for larval growth inhibition [3]
O=C(N[C@H]1CN2CCC1CC2)c1cc2ccoc2cn1 | 200 µM | 5.73 | 5.89 | 5.88 | 5.78 | 5.86 | 5.86 | 5.65 | > 200 µM
CC(=O)CC(c1ccccc1)c1c(O)c2ccccc2oc1=O (stereo unspecified) [Warfarin] | 200 µM | 5.8 | 5.94 | 5.97 | 5.89 | 5.91 | 5.81 | 5.59 | > 200 µM
Cc1cc2c(cc1C(F)(F)F)N(C(=O)Nc1ccc(Oc3cccnc3C)nc1)CC2 | 200 µM | 5.88 | 5.73 | 5.86 | 5.71 | 5.75 | 5.67 | 5.57 | > 200 µM
CCOc1cccc(C2(N3CCN(c4ccccc4)CC3)CCC(C)CC2)c1 (stereo unspecified) | 200 µM | 5.73 | 5.87 | 5.72 | 5.79 | 5.69 | 5.67 | 5.56 | > 200 µM
CC(C)CCCCCCCOC(=O)CCCCC(=O)OCCCCCCCC(C)C [Diisodecyl adipate] | 200 µM | 5.86 | 5.91 | 5.83 | 5.89 | 5.89 | 5.89 | 5.53 | > 200 µM
CCCN(CCC)c1c([N+](=O)[O-])cc(S(N)(=O)=O)cc1[N+](=O)[O-] [Oryzalin] | 50 µM | 5.9 | 5.91 | 5.84 | 5.72 | 5.27 | 4.95 | 4.56 | > 200 µM
CCOc1cc(C(C)(C)C)ccc1C1COC(c2c(F)cccc2F)=N1 (stereo unspecified) [Etoxazole] | 1 µM | 5.74 | 5.16 | 4.48 | 4.32 | 4.37 | 3.91 | 3.44 | 2.3 µM
OCCC(F)(F)C(F)(F)C(F)(F)C(F)(F)C(F)(F)C(F)(F)F [1-Octanol, 3,3,4,4,5,5,6,6,7,7,8,8,8-tridecafluoro-] | 200 µM | 5.87 | 5.92 | 5.88 | 5.94 | 5.91 | 5.77 | 5.65 | > 200 µM
CC/C(=C(\c1ccccc1)c1ccc(OCCN(C)C)cc1)c1ccccc1 [Tamoxifen] | 50 µM | 5.79 | 5.76 | 5.65 | 5.67 | 3.84 | 3.93 | 3.53 | 20.8 µM
CCc1nn(C)c(C(=O)NCc2ccc(C(C)(C)C)cc2)c1Cl [Tebufenpyrad] | ≤ 0.5 µM | 4.96 | 5.23 | 3.83 | 3.7 | 3.95 | 4.11 | 3.36 | 1.03 µM
CCCCOC(=O)CCCCC(=O)OCCCC [Dibutyl hexanedioate] | 50 µM | 5.86 | 5.83 | 5.8 | 5.76 | 5.27 | 3.38 | 3.38 | 58.5 µM
CN(C)[C@@H]1C(=O)C(C(N)=O)=C(O)[C@@]2(O)C(=O)C3=C(O)c4c(O)cccc4[C@@](C)(O)[C@H]3[C@H](O)[C@@H]12 [Oxytetracycline hydrochloride] | 100 µM | 5.99 | 5.96 | 5.95 | 6.01 | 5.9 | 5.64 | 5.48 | 81.4 µM
Nc1c(Cl)cc([N+](=O)[O-])cc1Cl [Dichloran] | 50 µM | 6.01 | 5.9 | 5.93 | 5.73 | 4.94 | 4.92 | 4.96 | 14.4 µM
COP(=S)(OC)SCN1C(=O)c2ccccc2C1=O [Phosmet] | 10 µM | 5.89 | 5.76 | 5.86 | 5.61 | 5.66 | 5.52 | 5.02 | > 200 µM
Cc1c(C)c2c(c(C)c1O)CCC(C)(COc1ccc(CC3SC(=O)NC3=O)cc1)O2 (stereo unspecified) [Troglitazone] | 50 µM | 5.7 | 5.77 | 5.66 | 5.69 | 4.39 | 4.11 | 3.59 | 47.7 µM
COc1ccc(C(c2ccc(OC)cc2)C(Cl)(Cl)Cl)cc1 [Methoxychlor] | ≤ 0.5 µM | 5.6 | 5.46 | 5.58 | 5.19 | 4.71 | 4.01 | 3.61 | 39 µM
CS/C(C)=N\OC(=O)N(C)SN(C)C(=O)O/N=C(\C)SC [Thiodicarb] | 5 µM | 5.54 | 5.83 | 5.32 | 5.34 | 4.27 | 3.74 | 3.51 | 28.4 µM
CCCCCCCCN(C)C [N,N-Dimethyloctylamine] | 200 µM | 5.85 | 5.83 | 5.81 | 5.79 | 5.85 | 5.88 | 5.65 | > 200 µM
O=C(OC[C@H]1O[C@@H](OC(=O)c2cc(O)c(O)c(OC(=O)c3cc(O)c(O)c(O)c3)c2)[C@H](OC(=O)c2cc(O)c(O)c(OC(=O)c3cc(O)c(O)c(O)c3)c2)[C@@H](OC(=O)c2cc(O)c(O)c(OC(=O)c3cc(O)c(O)c(O)c3)c2)[C@@H]1OC(=O)c1cc(O)c(O)c(OC(=O)c2cc(O)c(O)c(O)c2)c1)c1cc(O)c(O)c(OC(=O)c2cc(O)c(O)c(O)c2)c1 [Tannic acid] | 200 µM | 5.95 | 5.98 | 5.96 | 5.92 | 5.86 | 5.68 | 5.34 | > 200 µM
CCCCCCCCCCCCCCCCOS(=O)(=O)O [Sodium cetyl sulfate] | 50 µM | 5.79 | 6.01 | 5.91 | 5.92 | 5.38 | 5 | 4.68 | 74.7 µM
CCOC(=O)[C@]1(c2ccccc2)Oc2ccccc2[C@@H]1N | 10 µM | 5.84 | 5.73 | 5.71 | 5.27 | 4.94 | 5.43 | 4.03 | 56.5 µM
CNC(=O)Oc1cccc2c1OC(C)(C)O2 [Bendiocarb] | 200 µM | 5.79 | 5.85 | 5.8 | 5.79 | 5.81 | 5.76 | 5.25 | > 200 µM

Compound | lowest effective concentration [1] | mean nematode size ln(EXT) (ln) ([2]; 0.5 µM) | mean nematode size ln(EXT) (ln) ([2]; 1 µM) | mean nematode size ln(EXT) (ln) ([2]; 5 µM) | mean nematode size ln(EXT) (ln) ([2]; 10 µM) | mean nematode size ln(EXT) (ln) ([2]; 50 µM) | mean nematode size ln(EXT) (ln) ([2]; 100 µM) | mean nematode size ln(EXT) (ln) ([2]; 200 µM) | AC50 for larval growth inhibition [3]
CC(C)Nc1nc(Cl)nc(NC(C)C)n1 [Propazine] | 200 µM | 5.99 | 6.05 | 6.03 | 6.09 | 6.04 | 5.83 | 5.55 | 102 µM
N#Cc1cccnc1 [3-Pyridinecarbonitrile] | 5 µM | 5.73 | 5.78 | 5.61 | 5.65 | 5.65 | 5.65 | 5.54 | 18.2 µM
CCOC(=O)C(C)Oc1ccc(Oc2nc3ccc(Cl)cc3o2)cc1 (stereo unspecified) [Fenoxaprop-ethyl] | 100 µM | 5.83 | 6.04 | 6 | 5.97 | 5.68 | 5.4 | 5.18 | 76.3 µM
CC(=O)OC/C=C(\C)CCC=C(C)C [Geranyl acetate] | 200 µM | 5.79 | 5.76 | 5.73 | 5.81 | 5.7 | 5.74 | 5.61 | > 200 µM
Cc1ccc(/N=C/N(C)/C=N/c2ccc(C)cc2C)c(C)c1 [Amitraz] | 200 µM | 6.02 | 5.93 | 6.14 | 5.97 | 5.95 | 6.57 | 4.72 | 200 µM
FC(F)(F)C(F)(F)C(F)(F)C(F)(F)C(F)(F)C(F)(F)CCI [1H,1H,2H,2H-Perfluorooctyl iodide] | 200 µM | 5.99 | 5.98 | 5.95 | 5.96 | 5.94 | 5.86 | 4.39 | 190 µM
Nc1ccc2c(c1)C(=O)c1ccccc1C2=O [2-Aminoanthraquinone] | 100 µM | 6.17 | 5.82 | 5.77 | 5.81 | 5.75 | 4.42 | 5.14 | 53.9 µM
CCCCC=O [Pentanal] | 200 µM | 5.98 | 5.93 | 5.9 | 6 | 6.05 | 6.02 | 5.56 | 185 µM
N#CC(CCc1ccc(Cl)cc1)(Cn1cncn1)c1ccccc1 (stereo unspecified) [Fenbuconazole] | 10 µM | 6.18 | 6.1 | 6.07 | 5.65 | 5.13 | 5.27 | 4.39 | 177 µM
O=C1OC(c2ccc(O)cc2)(c2ccc(O)cc2)c2ccccc21 [Phenolphthalein] | 200 µM | 5.87 | 5.86 | 5.87 | 5.87 | 5.78 | 5.84 | 5.55 | > 200 µM
CCN(CC)C(=O)SCc1ccc(Cl)cc1 [Thiobencarb] | 50 µM | 5.97 | 5.98 | 5.97 | 5.95 | 5.44 | 4.48 | 4.48 | 51.1 µM
CC(=O)[O][Hg][c]1ccccc1 [Phenylmercuric acetate] | ≤ 0.5 µM | 5.43 | 5.07 | 4.25 | 3.93 | 4.09 | 4.09 | 3.02 | 1.02 µM
O=C(O)c1ccccc1-n1cc(C(=O)O)c(=O)c2cc(Nc3c(F)cc(F)cc3Cl)c(Cl)cc21 | 200 µM | 5.87 | 5.89 | 5.95 | 5.9 | 5.94 | 5.85 | 5.63 | > 200 µM
Cc1ccc(-c2cc(C(F)(F)F)nn2-c2ccc(S(N)(=O)=O)cc2)cc1 [Celecoxib] | 50 µM | 5.9 | 5.92 | 5.8 | 5.81 | 4.7 | 4.53 | 4.22 | 30.3 µM
CCCCCCCCCCC [Undecane] | 200 µM | 5.95 | 5.92 | 5.86 | 5.83 | 5.86 | 5.9 | 5.57 | > 200 µM
COC(=O)C=C(C)OP(=O)(OC)OC [Mevinphos] | 200 µM | 6.16 | 6.21 | 6.22 | 6.29 | 4.99 | 5.74 | 3.88 | 156 µM
c1ccc2c(c1)oc1ccccc12 [Dibenzofuran] | 50 µM | 5.88 | 5.9 | 5.93 | 5.87 | 5.61 | 5.1 | 3.65 | 126 µM
CSC(=O)c1c(C(F)F)nc(C(F)(F)F)c(C(=O)SC)c1CC(C)C [Dithiopyr] | 10 µM | 6.12 | 6.03 | 6.04 | 5.65 | 4.72 | 4.61 | 3.44 | 66.4 µM
CC(C1CC1)C(O)(Cn1cncn1)c1ccc(Cl)cc1 (stereo unspecified) [Cyproconazole] | 200 µM | 5.92 | 5.92 | 5.85 | 5.99 | 6.17 | 6.33 | 5.59 | > 200 µM
Fc1ccc(Oc2ccnc3cc(Cl)cc(Cl)c23)cc1 [Quinoxyfen] | ≤ 0.5 µM | 4.9 | 5.31 | 4.26 | 4.2 | 3.97 | 4 | 3.68 | 1.53 µM
CCCCCCCCCCCCCCCCO [1-Hexadecanol] | 200 µM | 5.89 | 5.83 | 5.86 | 5.79 | 5.68 | 5.79 | 5.64 | > 200 µM
Cc1ccc(C(C)(C)C)c(O)c1 [2-tert-Butyl-5-methylphenol] | 200 µM | 6.07 | 6.05 | 6.02 | 6.06 | 5.95 | 5.91 | 4.77 | > 200 µM
